Reference: patent US11173151B2, “Substituted triazole derivatives and uses thereof” (BAYER AKTIENGESELLSCHAFT, priority 2017, dated 2021)

What was measured:
human V1a receptor = target: T1, human V1a receptor (Homo sapiens, UniProt P37288); experiment: Cellular in vitro assay for determining vasopressin receptor activity, V1a receptor cell line (CHO, aequorin luminescence); assay type: cell-based; settings: for IC50: CHO cell line transfected with human V1a receptor, [Arg]-vasopressin at EC50 concentration, read-out: IC50 hV1a; for ratio IC50 hV2/hV1a: selectivity ratio IC50 hV2 / IC50 hV1a
T1 construct: expressed in transfected cells; host or cells: CHO K1 (ATCC), also stably transfected with a modified aequorin
T1 sequence (P37288 whole entry): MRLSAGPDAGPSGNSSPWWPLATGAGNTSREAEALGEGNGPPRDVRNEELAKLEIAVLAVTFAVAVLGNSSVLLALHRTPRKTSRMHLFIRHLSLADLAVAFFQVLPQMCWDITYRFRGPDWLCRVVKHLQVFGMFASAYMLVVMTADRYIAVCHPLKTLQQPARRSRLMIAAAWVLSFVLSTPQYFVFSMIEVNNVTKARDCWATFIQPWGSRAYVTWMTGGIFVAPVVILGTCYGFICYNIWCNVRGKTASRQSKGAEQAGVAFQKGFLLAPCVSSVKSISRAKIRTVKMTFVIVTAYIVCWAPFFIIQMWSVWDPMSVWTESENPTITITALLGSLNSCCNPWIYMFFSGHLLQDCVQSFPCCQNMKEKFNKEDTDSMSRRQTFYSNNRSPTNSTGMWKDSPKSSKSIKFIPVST
In short: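 CHO K1/aequorin cells, coelenterazine 5 μg/ml o/n; cpd 10 min; [Arg]-vasopressin at EC50; luminescence read immediately; IC50.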

human V2 receptor = target: T2, human V2 receptor (Homo sapiens, UniProt P30518); experiment: Cellular in vitro assay for determining vasopressin receptor activity, V2 receptor cell line (CHO, CRE-luciferase); assay type: cell-based; settings: CHO cell line transfected with human V2 receptor; [Arg8]-vasopressin at EC50 concentration, 3 hours; read-out: IC50 hV2
T2 construct: expressed in transfected cells; host or cells: CHO K1 (ATCC) expressing firefly luciferase under a CRE-responsive promoter
T2 sequence (P30518 whole entry): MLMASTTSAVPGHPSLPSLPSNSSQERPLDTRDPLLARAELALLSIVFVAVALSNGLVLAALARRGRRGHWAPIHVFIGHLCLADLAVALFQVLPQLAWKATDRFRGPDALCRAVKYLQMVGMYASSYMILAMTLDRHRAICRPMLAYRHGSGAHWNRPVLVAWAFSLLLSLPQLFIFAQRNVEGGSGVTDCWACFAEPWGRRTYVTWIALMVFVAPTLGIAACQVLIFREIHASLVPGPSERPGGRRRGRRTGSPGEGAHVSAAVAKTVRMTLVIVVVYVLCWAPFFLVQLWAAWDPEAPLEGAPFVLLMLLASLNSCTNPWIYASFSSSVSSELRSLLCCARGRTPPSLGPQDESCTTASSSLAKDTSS

Compound | IC50 (human V1a receptor) [nM] | ratio IC50 hV2/hV1a (human V1a receptor) | IC50 (human V2 receptor) [nM]
CC1(C(=O)Nc2ncccc2-n2cnc(Cn3nc(-c4ccc(Cl)cc4)n(C[C@H](O)C(F)(F)F)c3=O)n2)CCCCC1 [Example 113] | 91 | 9.2 | 835
CC1CC1C(=O)Nc1ncccc1-n1cnc(Cn2nc(-c3ccc(Cl)cc3)n(C[C@H](O)C(F)(F)F)c2=O)n1 (stereo partly drawn) [Example 114] | 19 | 12.6 | 240
O=C(Nc1ncccc1-n1cnc(Cn2nc(-c3ccc(Cl)cc3)n(C[C@H](O)C(F)(F)F)c2=O)n1)C1CCC1 [Example 115] | 31 | 15.8 | 490
O=C(Nc1ncccc1-n1cnc(Cn2nc(-c3ccc(Cl)cc3)n(C[C@H](O)C(F)(F)F)c2=O)n1)c1ccccc1F [Example 116] | 78 | 14.7 | 1150
CC1(C(=O)Nc2ncccc2-n2cnc(Cn3nc(-c4ccc(Cl)cc4)n(C[C@H](O)C(F)(F)F)c3=O)n2)COC1 [Example 118] | 140 | 8.2 | 1150
O=C(Nc1ncccc1-n1cnc(Cn2nc(-c3ccc(Cl)cc3)n(C[C@H](O)C(F)(F)F)c2=O)n1)c1ccc(F)cc1 [Example 121] | 52 | 28.8 | 1500
Cc1ccccc1C(=O)Nc1ncccc1-n1cnc(Cn2nc(-c3ccc(Cl)cc3)n(C[C@H](O)C(F)(F)F)c2=O)n1 [Example 122] | 120 | 13.8 | 1650
Cc1ccc(C(=O)Nc2ncccc2-n2cnc(Cn3nc(-c4ccc(Cl)cc4)n(C[C@H](O)C(F)(F)F)c3=O)n2)cc1 [Example 123] | 105 | 21.9 | 2300
Cc1n[nH]c(C)c1C(=O)Nc1ncccc1-n1cnc(Cn2nc(-c3ccc(Cl)cc3)n(C[C@H](O)C(F)(F)F)c2=O)n1 [Example 124] | 315 | 12.1 | 3800
NC(=O)C1(C(=O)Nc2ncccc2-n2cnc(Cn3nc(-c4ccc(Cl)cc4)n(C[C@H](O)C(F)(F)F)c3=O)n2)CC1 [Example 125] | 29.5 | 12.2 | 360
Cc1ccn(CC(=O)Nc2ncccc2-n2cnc(Cn3nc(-c4ccc(Cl)cc4)n(C[C@H](O)C(F)(F)F)c3=O)n2)n1 [Example 127] | 160 | 6.6 | 1050
Cc1nnsc1C(=O)Nc1ncccc1-n1cnc(Cn2nc(-c3ccc(Cl)cc3)n(C[C@H](O)C(F)(F)F)c2=O)n1 [Example 128] | 13.5 | 111.1 | 1500
Cc1cc(C(=O)Nc2ncccc2-n2cnc(Cn3nc(-c4ccc(Cl)cc4)n(C[C@H](O)C(F)(F)F)c3=O)n2)nn1C [Example 129] | 670 | 5.4 | 3650
Cc1[nH]ncc1C(=O)Nc1ncccc1-n1cnc(Cn2nc(-c3ccc(Cl)cc3)n(C[C@H](O)C(F)(F)F)c2=O)n1 [Example 130] | 189 | 23.9 | 4500
CC(C(=O)Nc1ncccc1-n1cnc(Cn2nc(-c3ccc(Cl)cc3)n(C[C@H](O)C(F)(F)F)c2=O)n1)n1ccnc1 (stereo partly drawn) [Example 131] | 12.5 | 156.0 | 1950
Cn1cncc1C(=O)Nc1ncccc1-n1cnc(Cn2nc(-c3ccc(Cl)cc3)n(C[C@H](O)C(F)(F)F)c2=O)n1 [Example 132] | 45.5 | 113.2 | 5150
Cc1nonc1C(=O)Nc1ncccc1-n1cnc(Cn2nc(-c3ccc(Cl)cc3)n(C[C@H](O)C(F)(F)F)c2=O)n1 [Example 133] | 4.9 | 295.9 | 1450
O=C(Nc1ncccc1-n1cnc(Cn2nc(-c3ccc(Cl)cc3)n(C[C@H](O)C(F)(F)F)c2=O)n1)C1CCOCC1 [Example 134] | 117 | 10.7 | 1250
Cc1cc(CC(=O)Nc2ncccc2-n2cnc(Cn3nc(-c4ccc(Cl)cc4)n(C[C@H](O)C(F)(F)F)c3=O)n2)on1 [Example 135] | 66.5 | 14.0 | 930
COC(C)(C)C(=O)Nc1ncccc1-n1cnc(Cn2nc(-c3ccc(Cl)cc3)n(C[C@H](O)C(F)(F)F)c2=O)n1 [Example 137] | 146 | 9.2 | 1350
Cc1nonc1CC(=O)Nc1ncccc1-n1cnc(Cn2nc(-c3ccc(Cl)cc3)n(C[C@H](O)C(F)(F)F)c2=O)n1 [Example 138] | 38.5 | 61.0 | 2350
CCc1cc(C(=O)Nc2ncccc2-n2cnc(Cn3nc(-c4ccc(Cl)cc4)n(C[C@H](O)C(F)(F)F)c3=O)n2)no1 [Example 139] | 20.5 | 22.7 | 465
CCc1cc(C(=O)Nc2ncccc2-n2cnc(Cn3nc(-c4ccc(Cl)cc4)n(C[C@H](O)C(F)(F)F)c3=O)n2)on1 [Example 140] | 33.5 | 30.0 | 1010
O=C(CC1CCCO1)Nc1ncccc1-n1cnc(Cn2nc(-c3ccc(Cl)cc3)n(C[C@H](O)C(F)(F)F)c2=O)n1 (stereo partly drawn) [Example 141] | 32 | 33.3 | 1060
CC1=NOC(C)(C(=O)Nc2ncccc2-n2cnc(Cn3nc(-c4ccc(Cl)cc4)n(C[C@H](O)C(F)(F)F)c3=O)n2)C1 (stereo partly drawn) [Example 142] | 100 | 24.0 | 2400
O=C(Nc1ncccc1-n1cnc(Cn2nc(-c3ccc(Cl)cc3)n(C[C@H](O)C(F)(F)F)c2=O)n1)c1ccncn1 [Example 143] | 15 | 74.7 | 1120
O=C(CC1CCCC1)Nc1ncccc1-n1cnc(Cn2nc(-c3ccc(Cl)cc3)n(C[C@H](O)C(F)(F)F)c2=O)n1 [Example 150] | 54.5 | 44.0 | 2400
N#Cc1cccc(C(=O)Nc2ncccc2-n2cnc(Cn3nc(-c4ccc(Cl)cc4)n(C[C@H](O)C(F)(F)F)c3=O)n2)c1 [Example 153] | 410 | 42.2 | 17300
CC(C(=O)Nc1ncccc1-n1cnc(Cn2nc(-c3ccc(Cl)cc3)n(C[C@H](O)C(F)(F)F)c2=O)n1)n1cncn1 (stereo partly drawn) [Example 155] | 39 | 50.0 | 1950
O=C(Nc1ncccc1-n1cnc(Cn2nc(-c3ccc(Cl)cc3)n(C[C@H](O)C(F)(F)F)c2=O)n1)C1CCCCCC1 [Example 156] | 66 | 20.5 | 1350

More lines, now with the values ahead:

IC50 (human V1a receptor) [nM] | ratio IC50 hV2/hV1a (human V1a receptor) | IC50 (human V2 receptor) [nM] | Compound
65.5 | 16.0 | 1050 | CC(C)(C)C(=O)Nc1ncccc1-n1cnc(Cn2nc(-c3ccc(Cl)cc3)n(C[C@H](O)C(F)(F)F)c2=O)n1 [Example 117]
35 | 7.7 | 270 | CC[C@H](C)C(=O)Nc1ncccc1-n1cnc(Cn2nc(-c3ccc(Cl)cc3)n(C[C@H](O)C(F)(F)F)c2=O)n1 [Example 119]
27 | 15.7 | 425 | CCC(C)(O)C(=O)Nc1ncccc1-n1cnc(Cn2nc(-c3ccc(Cl)cc3)n(C[C@H](O)C(F)(F)F)c2=O)n1 (stereo partly drawn) [Example 120]
36 | 6.9 | 250 | CC[C@@H](C)C(=O)Nc1ncccc1-n1cnc(Cn2nc(-c3ccc(Cl)cc3)n(C[C@H](O)C(F)(F)F)c2=O)n1 [Example 126]
23.5 | 14.5 | 340 | O=C(CC1CCC1)Nc1ncccc1-n1cnc(Cn2nc(-c3ccc(Cl)cc3)n(C[C@H](O)C(F)(F)F)c2=O)n1 [Example 136]
185 | 10.3 | 1900 | C=CC(C)C(=O)Nc1ncccc1-n1cnc(Cn2nc(-c3ccc(Cl)cc3)n(C[C@H](O)C(F)(F)F)c2=O)n1 (stereo partly drawn) [Example 144]
125 | 8.1 | 1010 | CC(C)(O)C(=O)Nc1ncccc1-n1cnc(Cn2nc(-c3ccc(Cl)cc3)n(C[C@H](O)C(F)(F)F)c2=O)n1 [Example 145]
56 | 9.9 | 555 | CCCC(=O)Nc1ncccc1-n1cnc(Cn2nc(-c3ccc(Cl)cc3)n(C[C@H](O)C(F)(F)F)c2=O)n1 [Example 146]
305 | 3.1 | 940 | CCC(=O)Nc1ncccc1-n1cnc(Cn2nc(-c3ccc(Cl)cc3)n(C[C@H](O)C(F)(F)F)c2=O)n1 [Example 147]
19 | 13.4 | 255 | CC(C)CC(=O)Nc1ncccc1-n1cnc(Cn2nc(-c3ccc(Cl)cc3)n(C[C@H](O)C(F)(F)F)c2=O)n1 [Example 148]
12.4 | 153.2 | 1900 | CSCC(=O)Nc1ncccc1-n1cnc(Cn2nc(-c3ccc(Cl)cc3)n(C[C@H](O)C(F)(F)F)c2=O)n1 [Example 149]
98 | 6.8 | 665 | CC(C)C(=O)Nc1ncccc1-n1cnc(Cn2nc(-c3ccc(Cl)cc3)n(C[C@H](O)C(F)(F)F)c2=O)n1 [Example 151]
65 | 20.8 | 1350 | C=CCC(=O)Nc1ncccc1-n1cnc(Cn2nc(-c3ccc(Cl)cc3)n(C[C@H](O)C(F)(F)F)c2=O)n1 [Example 152]
6.75 | 325.9 | 2200 | CC1(C(=O)Nc2ncccc2-n2cnc(Cn3nc(-c4ccc(Cl)cc4)n(C[C@H](O)C(F)(F)F)c3=O)n2)CC1 [Example 154]
